This passage reports IC50 results from patent US20260297070A1, “CYCLIC [COMPOUND LEFT OUT] WRN INHIBITORS” (Nimbus Wadjet, Inc., priority 2023, published 2026).

pIC50: −log10 of the molar value. A value given as a limit tells only on which side of the number the result lay.

T1 sequence (Q14191 with tags, fused parts or gaps L1074F limits assumed): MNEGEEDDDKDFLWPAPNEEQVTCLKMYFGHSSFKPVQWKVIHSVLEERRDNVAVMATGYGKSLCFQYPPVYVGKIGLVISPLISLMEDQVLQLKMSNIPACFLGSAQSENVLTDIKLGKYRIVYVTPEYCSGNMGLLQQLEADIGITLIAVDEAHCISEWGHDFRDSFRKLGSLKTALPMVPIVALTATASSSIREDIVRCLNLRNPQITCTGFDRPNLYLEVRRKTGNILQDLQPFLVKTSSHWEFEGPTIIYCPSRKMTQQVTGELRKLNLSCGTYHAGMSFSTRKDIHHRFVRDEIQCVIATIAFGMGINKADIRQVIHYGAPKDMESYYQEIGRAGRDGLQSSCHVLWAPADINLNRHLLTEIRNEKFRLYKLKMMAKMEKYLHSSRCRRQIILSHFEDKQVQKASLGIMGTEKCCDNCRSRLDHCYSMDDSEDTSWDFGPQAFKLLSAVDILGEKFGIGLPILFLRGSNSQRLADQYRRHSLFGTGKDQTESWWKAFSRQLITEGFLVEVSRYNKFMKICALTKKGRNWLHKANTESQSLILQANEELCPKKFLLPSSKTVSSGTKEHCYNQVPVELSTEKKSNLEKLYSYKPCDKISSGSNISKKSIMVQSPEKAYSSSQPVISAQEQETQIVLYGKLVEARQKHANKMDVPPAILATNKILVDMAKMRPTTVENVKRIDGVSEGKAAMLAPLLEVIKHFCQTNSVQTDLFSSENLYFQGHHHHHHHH

This assay addresses T1, human Werner helicase (WRN-BV08, Uniprot Q14191, amino acids 517-1235 with L1074F point mutation) (Homo sapiens, UniProt Q14191, L1074F).
T1 construct: Uniprot Q14191, amino acids 517-1235 with L1074F point mutation; TEV-cleavable 8×His (C, cleaved yes); made in house; host or cells: Sf9 insect cells (baculovirus)
Description: WRN (BV08) ADP-Glo Assay. Format: biochemical. As to conditions: 0.15 nM WRN, 5 μM ATP, 0.1 nM DNA duplex, 15 min preincubation, 60 min at 25° C., pH 7.5, 1% DMSO; read-out: ADP-Glo_hWRN_IC50. An excerpt: Example 2: WRN (BV08) ADP-Glo Assay Protocol
Bovine skin gelatin (BSG), dimethyl sulfoxide (DMSO), Pluronic F-127 and Tris(2-carboxyethyl)phosphine hydrochloride solution (TCEP) were purchased from Sigma-Aldrich at the highest level of purity possible. Bicine buffer solution was purchased from Alfa Aesar and compound NSC-617145 was purchased from Tocris. DNA duplex was synthesized at BGI (Shenzhen, China) and was composed of strand 1 with the sequence 5′-[…]-3′ (SEQ ID NO.: 1) and strand 2 with the sequence 5′-[…]-3′ (SEQ ID NO.: 2). DNA strands were annealed by heating to 95° C. for 5 minutes followed by slow cooling to room temperature. Compounds in 100% DMSO (0.1 μl) were spotted into a 384-well white polystyrene Optiplate-384 (Perkin Elmer) assay plate using a LabCyte Echo 550 (Agilent). DMSO (0.1 μl) was added to columns 12, rows A-H and column 24, rows I-P for the maximum signal control. Compound NSC-617145 (0.1 μl) was added to columns 12, rows I-P and 24, rows A-H for the minimum signal control (100% inhibition). Compounds/DMSO were preincubated for 15 minutes at 25° C. with 5 uL 2×WRN (BV08), prepared as described below, in assay buffer containing 20 mM Bicine (pH=7.5), 1 mM MgCl2, 10 mM KCl, 0.1% Pluronic F-127, 0.005% BSG, 1 mM TCEP. The reaction was initiated by the addition of 5 μl 2× substrate mixture in assay buffer and incubated for 60 minutes at 25° C. The final concentrations of the assay components were 0.15 nM WRN, 5 μM ATP, and 0.1 nM DNA duplex. The final DMSO concentration was 1% and the reference compound concentration (NSC-617145) used for the minimal signal control was 20 μM. The reaction was stopped by the addition of the ADP-Glo Kit components (Promega) as directed and the relative luminescence units (RLU) were read on an Envision 2104 (Perkin Elmer).
% Inhibition Calculation:
Where RLU=relative luminescence units, sample=signal in sample well, and MIN and MAX are the respective minimum and maximum signal controls.
Four-Parameter IC50 Fit Equation:
Where top and bottom are normally allowed to float but may be fixed at 100 or 0 respectively in a 3-parameter fit. Y is the % inhibition and X is the compound concentration.
Molecular Biology and virus production. The DNA encoding human Werner helicase (Uniprot Q14191, amino acids 517-1235 with L1074F point mutation) was generated with codon-optimization for E. coli expression and subcloned into the pFastBac vector with a TEV cleavable 8×His tag (WRN-BV08). The baculovirus from the expression plasmid WRN-BV08 was generated from transfection and amplification following the manufacturer's instructions.
Sf9 cells grown in SF900II media were infected with 1:200 WRN-BV08 P2 virus and incubated for protein expression for 72 h at 27° C. The WRN protein was purified using the following protocol. The cell pellets were thawed and resuspended in buffer A (50 mM Tris, pH 7.5, 500 mM NaCl, 1 mM TCEP, 10% Glycerol) supplemented with 0.5% CHAPS, 1 mM [COMPOUND LEFT OUT], 1 μg/mL Leupeptin, 1 μg/mL Pepstatin, and the Pierce Universal Nuclease and cocktail tablet. Cleared lysates were loaded onto a Ni Sepharose™ excel column and washed with buffer A and bound protein was eluted with buffer A supplemented with 300 mM imidazole. The eluted protein was dialyzed against buffer A and digested by His-tagged TEV (1:5 ratio) overnight at 4° C. ZnCl2 was added into the sample at final 15 μM before loading onto a second Ni Sepharose™ excel column. Untagged WRN protein was eluted from the column with buffer A supplemented with 20 mM imidazole, dialyzed overnight into buffer B (50 mM Tris, pH 7.5, 1 mM TCEP, 10% Glycerol) supplemented with 150 mM NaCl and loaded onto a Heparin column. Proteins were eluted with a step gradient of buffer B supplemented with 150 mM, 200 mM, 300 mM and 500 mM NaCl. […]
In the case of `COc1cc(CN(C(=O)Cn2nc(C)c3cc(C(F)(F)F)ccc32)[C@@H]2C=CS(=O)(=O)C2)ccn1` [I-722, N-[(3R)-1,1-dioxo-2,3-dihydro-1lambda6-thiophen-3-yl]-N-[(2-methoxypyridin-4-yl)methyl]-2-[3-methyl-5-(trifluoromethyl)-1H-indazol-1-yl]acetamide], the pIC50 is < 4.30. On to `O=C(Cc1ccc(-c2nn[nH]n2)cc1)N(Cc1ccncc1)C1C=CS(=O)(=O)C1` (stereo not drawn) [I-370, N-(1,1-dioxo-2,3-dihydro-1lambda6-thiophen-3-yl)-N-[(pyridin-4-yl)methyl]-2-[4-(2H-1,2,3,4-tetrazol-5-yl)phenyl]acetamide], for which the pIC50 was < 4.30. With `CN(C)C(=O)C(C(=O)N(Cc1ccnc(C(C)(C)O)c1)C1C=CS(=O)(=O)C1)c1ccc(-c2ccc(F)cc2)cc1` (single isomer, unassigned) [I-264, (2R**)-N-[(3R*)-1,1-dioxo-2,3-dihydro-1lambda6-thiophen-3-yl]-2-{4′-fluoro-[1,1′-biphenyl]-4-yl}-N-{[2-(2-hydroxypropan-2-yl)pyridin-4-yl]methyl}-N′,N′-dimethylpropanediamide], the pIC50 is 5.00 to 5.30. With `O=C(Cn1cc(-c2ccc(F)cc2)cn1)N(Cc1nc(C2CC2)cs1)C1C=CS(=O)(=O)C1` (single isomer, unassigned) [I-601], the pIC50 was 5.30 to 6.30. Consider `COc1cc(CN(C(=O)C(c2ccc(-c3ccc(F)c(F)c3)cc2F)n2ccnn2)[C@@H]2C=CS(=O)(=O)C2)ccn1` (stereo partly drawn) [I-732, N-[(3R)-1,1-dioxo-2,3-dihydro-1lambda6-thiophen-3-yl]-N-[(2-methoxypyridin-4-yl)methyl]-2-(1H-1,2,3-triazol-1-yl)-2-{3,3′,4′-trifluoro-[1,1′-biphenyl]-4-yl}acetamide], for which the pIC50 was > 6.30. Regarding `COc1ccc2[nH]c(CC(=O)N(Cc3ccncc3)C3C=CS(=O)(=O)C3)cc2c1` (stereo not drawn) [I-412, N-(1,1-dioxo-2,3-dihydro-1lambda6-thiophen-3-yl)-2-(5-methoxy-1H-indol-2-yl)-N-[(pyridin-4-yl)methyl]acetamide], the pIC50 was < 4.30.

In the case of `CC(C)(O)c1cc(CN(C(=O)Cc2ccc(-n3cccc3)cc2F)C2C=CS(=O)(=O)C2)ccn1` (stereo not drawn) [I-61, N-(1,1-dioxo-2,3-dihydro-1lambda6-thiophen-3-yl)-2-[2-fluoro-4-(1H-pyrrol-1-yl)phenyl]-N-{[2-(2-hydroxypropan-2-yl)pyridin-4-yl]methyl}acetamide], the pIC50 is > 6.30. `O=C(Cc1ccc(-n2cccc2)cc1)N(Cc1cccc2nccnc12)C1C=CS(=O)(=O)C1` (stereo not drawn) [I-316, N-(1,1-dioxo-2,3-dihydro-1lambda6-thiophen-3-yl)-2-[4-(1H-pyrrol-1-yl)phenyl]-N-[(quinoxalin-5-yl)methyl]acetamide]: the pIC50 was 4.30 to 5.00.

As for `O=C(Cc1cccc(Oc2ccccc2)c1)N(Cc1ccncc1)C1C=CS(=O)(=O)C1` (stereo not drawn) [I-510, N-(1,1-dioxo-2,3-dihydro-1lambda6-thiophen-3-yl)-2-(3-phenoxyphenyl)-N-[(pyridin-4-yl)methyl]acetamide], the pIC50 is < 4.30. For `CCC(C(=O)N(Cc1ccncc1)C1C=CS(=O)(=O)C1)c1ccc(-n2cccc2)cc1` (stereo not drawn) [I-484, N-(1,1-dioxo-2,3-dihydro-1lambda6-thiophen-3-yl)-N-[(pyridin-4-yl)methyl]-2-[4-(1H-pyrrol-1-yl)phenyl]butanamide], the pIC50 is < 4.30. Then `O=C(Cc1ccc(-c2cc(F)cc(F)c2)cc1)N(Cc1ccncc1)C1C=CS(=O)(=O)C1` (stereo not drawn) [I-166, 2-{3′,5′-difluoro-[1,1′-biphenyl]-4-yl}-N-(1,1-dioxo-2,3-dihydro-1lambda6-thiophen-3-yl)-N-[(pyridin-4-yl)methyl]acetamide], with 5.30 to 6.30. As for `CC(C)(O)c1cc(CN(C(=O)Cc2ccc(-c3cccc(Cl)c3)cc2F)C2C=CS(=O)(=O)C2)ccn1` (stereo not drawn) [I-70, 2-{3′-chloro-3-fluoro-[1,1′-biphenyl]-4-yl}-N-(1,1-dioxo-2,3-dihydro-1lambda6-thiophen-3-yl)-N-{[2-(2-hydroxypropan-2-yl)pyridin-4-yl]methyl}acetamide], the pIC50 was > 6.30. For `O=C(Cc1ccc(-n2cccc2)cc1)N(CC12CC(C1)C2)C1C=CS(=O)(=O)C1` (stereo not drawn) [I-540, N-({bicyclo[1.1.1]pentan-1-yl}methyl)-N-(1,1-dioxo-2,3-dihydro-1lambda6-thiophen-3-yl)-2-[4-(1H-pyrrol-1-yl)phenyl]acetamide], the pIC50 was < 4.30.

Take `O=C(Cc1ccc(-c2ccc(F)cc2)cc1F)N(Cc1ccnc(OC2CC2)c1)C1C=CS(=O)(=O)C1` (stereo not drawn) [I-110, N-[(2-cyclopropoxypyridin-4-yl)methyl]-2-{3,4′-difluoro-[1,1′-biphenyl]-4-yl}-N-(1,1-dioxo-2,3-dihydro-1lambda6-thiophen-3-yl)acetamide]: the pIC50 is 5.30 to 6.30. Consider `CCOC(C(=O)N(Cc1ccnc(OC)c1)C1C=CS(=O)(=O)C1)c1ccc(-c2ccc(F)cc2)cc1` (stereo not drawn) [I-113, N-(1,1-dioxo-2,3-dihydro-1lambda6-thiophen-3-yl)-2-ethoxy-2-{4′-fluoro-[1,1′-biphenyl]-4-yl}-N-[(2-methoxypyridin-4-yl)methyl]acetamide], for which the pIC50 is 5.30 to 6.30. Consider `O=C(Cc1ccc(-n2ccc3ccccc32)cc1)N(Cc1ccncc1)C1C=CS(=O)(=O)C1` (stereo not drawn) [I-305, N-(1,1-dioxo-2,3-dihydro-1lambda6-thiophen-3-yl)-2-[4-(1H-indol-1-yl)phenyl]-N-[(pyridin-4-yl)methyl]acetamide], for which the pIC50 was 4.30 to 5.00. With `C=CCOC(C(=O)N(Cc1ccnc(C(C)(C)O)c1)[C@@H]1C=CS(=O)(=O)C1)c1ccc(-c2ccc(F)c(F)c2)cc1F` (single isomer, unassigned) [I-641], the pIC50 was > 6.30. For the compound `O=C(Cc1ccc(-n2cccc2)cc1)N(Cc1ccc(O)cc1)C1C=CS(=O)(=O)C1` (stereo not drawn) [I-303, N-(1,1-dioxo-2,3-dihydro-1lambda6-thiophen-3-yl)-N-[(4-hydroxyphenyl)methyl]-2-[4-(1H-pyrrol-1-yl)phenyl]acetamide], the pIC50 was 4.30 to 5.00. As for `O=C(Cc1ccc(-c2ccsc2)cc1)N(Cc1ccncc1)C1C=CS(=O)(=O)C1` (stereo not drawn) [I-248, N-(1,1-dioxo-2,3-dihydro-1lambda6-thiophen-3-yl)-N-[(pyridin-4-yl)methyl]-2-[4-(thiophen-3-yl)phenyl]acetamide], the pIC50 is 5.00 to 5.30.

`O=C(Cn1cc2ccc(C(F)F)cc2n1)N(Cc1ccncc1)C1C=CS(=O)(=O)C1` (stereo not drawn) [I-592, 2-[6-(difluoromethyl)-2H-indazol-2-yl]-N-(1,1-dioxo-2,3-dihydro-1lambda6-thiophen-3-yl)-N-[(pyridin-4-yl)methyl]acetamide]: the pIC50 is 4.30 to 5.00. Then `O=C([C@@H]1[C@@H]2CC[C@@]1(c1cccc(Br)c1)C2)N(Cc1ccncc1)C1C=CS(=O)(=O)C1` (mixture of isomers) [I-755, rac-(1R,4R,5R)-1-(3-bromophenyl)-N-(1,1-dioxo-2,3-dihydro-1lambda6-thiophen-3-yl)-N-[(pyridin-4-yl)methyl]bicyclo[2.1.1]hexane-5-carboxamide], with < 4.30.
